Assays:
[1] = tested on: CWR22Rv1 cells; assay: Cell growth assay (cell numbers), CWR22Rv1; type: cell-based
[2] = tested on: C4-2B MDVR cells; assay: Cell growth assay (cell numbers), C4-2B MDVR; type: cell-based; conditions: C4-2B MDVR, 48 hours
[3] = tested on: C4-2BMDVR cells; assay: ELISA cell death (apoptosis) assay; type: cell-based; conditions: compound alone, analogs compared with niclosamide, FIG. 8
Method: To further examine the anti-cancer effects of these compounds, an ELISA cell death assay was performed.

[4] = tested on: AR variants; assay: AR variant protein degradation (cycloheximide, MG132, ubiquitin IP) in CWR22Rv1 cells; type: cell-based; conditions: FIG. 15
Method: (§1) “AR-Variants” represents a combination of all forms of AR.
(§2) To determine if the small molecule modulators affect AR-V7 protein expression via protein degradation, CWR22Rv1 and C4-2B MDVR cells were treated with cycloheximide (CHX) and the half-life of AR-V7 protein was measured.
After 0, 2, 4, and 8 hours, whole cell lysate was collected and subjected to Western blot. The half-life of AR-V7 was then calculated.
Subsequently, the whole cell lysate was collected and subjected to Western blot.
For the data shown in FIG. 15C, CWR22Rv1 cells were treated with Nic, Compound 7, or Compound 31. Subsequently, whole cell lysate was immunoprecipitated with an AR antibody and blotted with ubiquitin and AR antibodies.

[5] = in vivo; conditions: for Cmax: rat plasma, p.o. 200 mg/kg
Method: Blood samples were obtained at the time points indicated in FIG. 18 (0 minutes, 15 minutes, 30 minutes, 1 hour, 1.5 hours, 2 hours, 4 hours, 6 hours, 8 hours, and 24 hours) and the plasma was isolated for LC-MS analysis.

[6] = tested on: C4-2B AbiR cells; assay: Cell growth assay (cell numbers), C4-2B AbiR; type: cell-based; conditions: 48 hours, FIG. 7C
[7] = tested on: C4-2-V7 cells; assay: Cell growth assay (cell numbers), C4-2-V7; type: cell-based; conditions: 48 hours, FIG. 7D
[8] = tested on: AR-V3; assay: PSA-luc assay in C4-2B cells, AR-V3; type: cell-based; conditions: FBS, 1 μM overnight, FIG. 14C
Description: C4-2B cells were cotransfected with pcDNA, with or without AR-V1, AR-V3, AR-V7, AR-V9 or AR-V12, and with PSA-E/P-luciferase plasmids in FBS condition.

[9] = tested on: AR variants; assay: AR variant protein degradation (cycloheximide, MG132, ubiquitin IP) in C4-2B MDVR cells; type: cell-based; conditions: FIG. 16
Method: as §1, §2
After 0, 2, 4, and 8 hours, whole cell lysate was collected and subjected to Western blot. Half-life of AR-V7 was then calculated.
Whole cell lysate was subsequently collected and subjected to Western blot.
Whole cell lysate was immunoprecipitated with an AR antibody and blot with ubiquitin and AR antibodies.

[10] = male, Sprague-Dawley, rat, in vivo, po, 200 mg/kg
[11] = male, Sprague-Dawley, rat, plasma, po, 200 mg/kg

In the case of `O=C(Nc1ccc([N+](=O)[O-])cc1Cl)c1cc(Cl)ccc1O` [niclosamide, (5-chloro-N-2-chloro-4-nitro-phenyl)-2-hydroxybenzamide, reference compound], the “cell proliferation, combination with enzalutamide (MDV)” value (“cell proliferation, combination” for short) ([1]; CWR22Rv1, 0.5 μM + enzalutamide, 48 hours, FIG. 7A) is reported as “further inhibited”, the cell growth ([1]; CWR22Rv1, 0.5 μM, 48 hours, FIG. 7A) is reported as “significantly inhibited” and the cell growth ([1]; CWR22Rv1, 48 hours, increasing doses of niclosamide/analogs, FIG. 6) is reported as “able to inhibit cell growth in a dose-dependent manner”. The “cell proliferation, combination” value ([2]; 0.5 μM + enzalutamide, FIG. 7B) was “further inhibited”, the cell growth ([2]; 0.5 μM, FIG. 7B) was “significantly inhibited” and the cell growth ([2]; increasing doses of niclosamide/analogs, FIG. 6) was “able to inhibit cell growth in a dose-dependent manner”. For the same molecule, the cell apoptosis [3] was “significantly induced”, the “AR variant degradation via the proteasome-ubiquitination system” value [4] was “degraded” and the “AUC_% Extrap_obs” value [5, 10] was 3.67 +/− 3.73%. The HL_Lambda_z [5, 10] was 328.09 ± 173.05 min, the AUC(0-inf) [5, 11] was 28.4 µM·h and the AUC(0-t) [5, 11] was 4.14 µM·h. For the same molecule, the Tmax [5, 11] was 25 min, the Cmax ([5]; male, Sprague-Dawley, rat, plasma, po, 200 mg/kg, Cmax) was 1560 nM and the Cmax [5] was 1560 nM. The “cell proliferation, combination” value ([6]; 0.5 μM + enzalutamide) was “further inhibited”, the cell growth ([6]; 0.5 μM) was “significantly inhibited” and the “cell proliferation, combination” value ([7]; C4-2-V7, 0.5 μM + enzalutamide) was “further inhibited”. For the same molecule, the cell growth ([7]; C4-2-V7, 0.5 μM) was “significantly inhibited”, the “AR-V3-mediated PSA-luc activity” value [8] was “inhibited” and the “AR variant degradation via the proteasome-ubiquitination system” value [9] was “degraded”.

Reference: US20200009088A1, “COMPOSITIONS AND METHODS FOR TREATING ANDROGEN-INDEPENDENT CANCER” (The Regents of the University of California, priority 2017, published 2020)
